# Assay results reported in article PMC10223284, “Category-Based Toxicokinetic Evaluations of Data-Poor Per- and Polyfluoroalkyl Substances (PFAS) using Gas Chromatography Coupled with Mass Spectrometry” (Toxics, 2023).
# “And” between values parts separate entries of the source, which are not always exact repeats. Equal entries are not always repeated. Where two headings read alike, the source gives them in different places.
# Columns and labels:
# [1] = tested on: human plasma
# [2] = tested on: human plasma; remark: listed apart in the source
# [3] = Abiotic loss in negative controls of the hepatocyte clearance assay (cell-free media, metabolically inactivated hepatocytes); type: in vitro ADME
# Method in brief: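 Test compound at 1 μM incubated at 37 °C with shaking in complete William's medium E, either cell-free or with metabolically inactivated hepatocytes, then quenched with ice-cold acetonitrile for quantitative analysis.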
# [4] = tested on: human primary cells; conditions: cited from earlier work
# [5] = tested on: pooled human cryopreserved primary hepatocyte suspensions; test: Hepatic metabolic stability (hepatocyte clearance) assay, substrate depletion; type: in vitro ADME; conditions: for Linear Regression Results, Best-Fit Values, Slope: hepatocyte time course
# Method in brief: (§1)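 Pooled 50-donor human cryopreserved hepatocytes (50,000 cells/100 μL) incubated with 1 μM compound at 37 °C with shaking. Parent loss quantified against internal standards over time to T240 in triplicate; T½ and Clint (μL/min/million cells) from ln concentration vs time, corrected for abiotic loss in cell-free and inactivated-hepatocyte controls.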
# [6] = In vitro-in vivo extrapolation (IVIVE) to Css and administered equivalent dose (AED); parameters: species or system human; conditions: for Clhep: IVIVE, hepatocyte Clint scaled to whole-liver clearance; for AED: administered equivalent dose from LOEC and Css; for Fub: fub=fup/(B:P), Fub set to 1 if needed; for CLint: scaled with HPGL 110 mill cells/g, Vl 1596 g
# Procedure: Using the experimentally generated PPB (fraction unbound in plasma, fup) and hepatic Clint data, IVIVE was performed as previously described to calculate human steady-state plasma concentrations (Css). Briefly, experimental measures of fup are adjusted using blood:plasma partitioning information to estimate the fraction unbound in blood (fub). Experimental hepatocyte Clint data are scaled up to represent whole-liver clearance (L/h). […] Once estimated, these Css values are considered in conjunction with published in vitro bioactivity concentrations (i.e., lowest-observed effective concentrations, or LOECs) to calculate AEDs (Table 2). See Table S10 for all relevant IVIVE inputs, scalars, calculations, and outputs.
# [7] = in vitro; conditions: both, human, plasma
# [8] = tested on: human plasma; test: Chemical stability in plasma over the UC assay time course (T5hr/T1hr); conditions: for PPB_Stab_Fail: flag for stability failure in the plasma protein binding assay (1 = fail, 0 = pass); for Fstable.Med: median fraction stable in plasma, UC assay Level4
# [9] = Hepatic metabolic stability (hepatocyte clearance) assay, substrate depletion; type: in vitro ADME, human; conditions: both sexes, human; for half-life at 1 μM: read-out: Linear Regression Results, Best-Fit Values, Half Life
# Method in brief: as §1
# [10] = tested on: human plasma; test: Ultracentrifugation (UC) plasma protein binding assay, fraction unbound in plasma (fup); conditions: for fup: human plasma, 10 μM, ultracentrifugation, 37 °C; for Fup.Med: median fraction unbound in plasma; for Fup.Med / Fup.point: UC assay Level4; for Fup.point: point estimate of fraction unbound in plasma
# [11] = flag for stability failure in hepatocyte clearance assay controls (1 or Fst = fail, 0 = pass)
# [12] = BioSeek lowest-observed effect concentration used for AED
# [13] = minimum lowest-observed effect concentration, BioSeek platform
# [14] = Assuming 1 mg/kg/day dose rate, BW 70 kg
# [15] = human steady-state plasma concentration, assuming 1 mg/kg/day dosage
# [16] = heat treated hepatocytes control, 0 vs 240 min
# [17] = hepatocyte incubation, Rep 1-3, start conc 1000 nM
# [18] = hepatocytes, background-subtracted, read-out: Bkgd-Sub Clearance (µL/min/106 hepatocytes)
# [19] = hepatocytes, hepatocyte clearance, Conc 1000 nM, not background adjusted, read-out: Unadj Clint
# [20] = hepatocytes, pooled human hepatocyte suspensions, 1 μM, read-out: In Vitro Clint
# [21] = hepatocytes, unadjusted hepatocyte intrinsic clearance, read-out: Unadj in vitro Clint
# [22] = hepatocytes, hepatocyte time course, NS = slope not significant, read-out: Linear Regression Results, Best-Fit Values, Clearance
# [23] = hepatocytes, hepatocyte time course, NS = slope not significant
# [24] = Mean fu, fraction unbound in human plasma, ultracentrifugation, some values based on eLOQ
# [25] = both sexes, human, heat treated hepatocytes control, 0 vs 240 min, read-out: HT BkgdCl, Half Life
# [26] = buffer, no cells control, 0 vs 240 min, read-out: No Cells BkgdCl, Half Life
# [27] = heat treated hepatocytes, Rep 1-3
smiles,measurement,setting,value
"C=C(C)C(=O)OCC(F)(F)C(F)(F)C(F)(F)C(F)(F)C(F)(F)C(F)(F)C(F)(F)F [1H,1H-Perfluorooctyl methacrylate]",Fstable.Med,[1],0.042
same,Unstable,[1],Y
same,% remaining_PPB,"[1]; human, plasma",49%
same,PPB_Stab_Fail,"[1]; human, plasma",0
same,Fup.Med,[2],0.0638
same,Fup.point,[2],0.0665
same,Mean fu,"[2]; human, plasma",0.1300
same,Hep_Stab_Fail,[3]; [11],1
NC(=O)C(F)(F)C(F)(F)F [Pentafluoropropionamide],Unstable,[1],Y
same,Fstable.Med,"[1]; both, human, 5 h, 10 μM",0.19
same,Mean Stability,"[1]; both, human, 5 h, 10 μM",0.711
same,"Stability (T5hr/ T1hr), Run-specific Avg","[1]; both, human, 5 h, 10 μM",0.719
same,PPB_Stab_Fail,"[1]; both, human, plasma, 5 h, 10 μM",0
same,LOEC,[4]; [12],20.00 µM
same,LOEC,[4]; [13],20 µM
same,"Concentration (nM), Time 120 min","[5]; both, human, 120 min, 1 μM",809.577 nM
same,In Vitro Clint,"[5]; both, human, hepatocytes, 1 μM",0.00 μL/min/10^6 cells
same,in vitro CLint,"[5]; both, human, hepatocytes, 1 μM",0 mL/min/106 cells
same,"Linear Regression Results, Best-Fit Values, Slope",[5],-0.00227
same,Bkgd-Sub Clearance (µL/min/106 hepatocytes),"[5]; human, hepatocytes",0.00 µL/min/106 hepatocytes
same,Bkgd_adj_Clint,"[5]; human, hepatocytes",0.00
same,Unadj Clint,"[5]; human, hepatocytes",0.00
same,Unadj in vitro Clint,"[5]; human, hepatocytes",0.00
same,clearance rate in hepatocytes,"[5]; human, hepatocytes",no clearance
same,Clint.1.Med,"[5]; human, s9",0
same,Css,[6]; [14],0.44 mg/L and 2.69 uM
same,Clhep,[6],0.000 L/h
same,AED,[6],7.4314 mg/kg/day
same,Fub,[6],1
same,Css,[6]; [15],2.69 µM
same,Css,"[6]; human steady-state plasma concentration, assuming 1 mg/kg/day dosage, listed as pentafluoropropionamide",2.1 to 2.7 µM
same,CLint,[6],0 µL/min
same,"fraction unbound at 5 h, 10 μM","[7]; Fraction Unbound (fu), Run-specific Avg",0.81
same,"fraction unbound at 5 h, 10 μM","[7]; Fraction Unbound (fu), replicates A, B, C",0.788
same,"fraction unbound at 5 h, 10 μM",[7]; Mean Fu,0.809
same,"fraction unbound at 5 h, 10 μM",[7]; Mean fu,0.809
same,Fup.Med,"[2]; both, human, 5 h, 10 μM",0.754
same,Fup.point,"[2]; both, human, 5 h, 10 μM",0.789
same,"No Cells BkgdCl, Clearance",[3]; 1 μM,7.66
same,half-life at 1 μM,"[3]; both sexes, human, hepatocytes",3.65 h
same,"HT BkgdCl, Clearance","[3]; both, human, 1 μM",6.324
same,Hep_Stab_Fail,"[3]; both, human, 120 min, 1 μM",0
same,half-life at 1 μM,[3]; buffer,3.02 h
same,"HT BkgdCl, Slope",[3]; [16],-0.003162
same,"No Cells BkgdCl, Slope","[3]; no cells control, 0 vs 240 min",-0.00383
NC(=O)C(F)(F)C(F)(F)C(F)(F)C(F)(F)F [Nonafluoropentanamide],PPB_Stab_Fail,[8],0
same,Mean Stability (T5hr/T1hr),"[8]; mean over all UC runs and replicates, human plasma",0.975
same,Fstable.Med,[8],0.999
same,"Stability (T5hr/ T1hr), Run-specific Avg",[8]; run-specific average,0.945
same,LOEC,[4]; [12],7.00 µM
same,LOEC,[4]; [13],7 µM
same,"Concentration (nM), Time 0 min",[5]; [17],390.162 nM and 651.917 nM and 499.488 nM
same,"Concentration (nM), Time 15 min",[5]; [17],214.882 nM and 126.475 nM and 193.144 nM
same,"Concentration (nM), Time 30 min",[5]; [17],192.232 nM and 153.873 nM and 192.317 nM
same,"Concentration (nM), Time 60 min",[5]; [17],74.6949 nM and 76.5031 nM and 55.8443 nM
same,"Concentration (nM), Time 120 min",[5]; [17],22.6965 nM and 21.4336 nM and 13.3509 nM
same,"Linear Regression Results, Best-Fit Values, Slope",[5],-0.01747
same,hepatocyte CLint at 1 μM,[9]; [18],26 µL/min/1e6 cells
same,hepatocyte CLint at 1 μM,[9]; [19],34.9 µL/min/1e6 cells
same,hepatocyte CLint at 1 μM,[9]; [20],26 µL/min/1e6 cells
same,hepatocyte CLint at 1 μM,[9]; [21],34.9 µL/min/1e6 cells
same,hepatocyte CLint at 1 μM,[9]; [22],34.9 µL/min/1e6 cells
same,half-life at 1 μM,[9]; [23],0.661 h
same,hepatocyte CLint at 1 μM,"[9]; s9, Bayesian analysis median, 1 μM assay concentration (Table S9), read-out: Clint.1.Med",88.7 µL/min/1e6 cells
same,Css,[6]; [14],0.06 mg/L and 0.23 uM
same,Clhep,[6],47.130 L/h
same,AED,[6],31.0338 mg/kg/day
same,Fub,[6],0.3609
same,Css,[6]; [15],0.23 µM
same,CLint,[6],4569125 µL/min
same,fraction unbound,"[7]; Fraction Unbound (fu), Run-specific Avg, run-specific average",0.2
same,fraction unbound,"[7]; Fraction Unbound (fu), replicate A, individual replicate A of the UC run dated in c8",0.228
same,fraction unbound,"[7]; Fraction Unbound (fu), replicate B, individual replicate B of the UC run dated in c8",0.178
same,fraction unbound,"[7]; Fraction Unbound (fu), replicate C, individual replicate C of the UC run dated in c8",0.191
same,fraction unbound,[7]; [24],0.199
same,half-life at 1 μM,[3]; [25],1.58 h
same,half-life at 1 μM,[3]; [26],2.59 h
same,Hep_Stab_Fail,[3]; [11],0
same,"HT BkgdCl, Slope",[3]; [16],-0.007311
same,"No Cells BkgdCl, Slope","[3]; no cells control, 0 vs 240 min",-0.004457
same,"Negative Controls, No cells (NC), concentration at 0 min",[3]; Rep 1-3,364.995 nM and 386.302 nM and 296.545 nM
same,"Negative Controls, No cells (NC), concentration at 240 min",[3]; Rep 1-3,132.756 nM and 122.614 nM and 103.779 nM
same,fup,[10],0.1985
same,Fup.Med,[10],0.192
same,Fup.point,[10],0.199
"Cc1ccc(S(=O)(=O)OCC(F)(F)C(F)(F)C(F)(F)C(F)(F)C(F)(F)C(F)F)cc1 [1H,1H,7H-Perfluoroheptyl 4-methylbenzenesulfonate]","Stability (T5hr/ T1hr), Run-specific Avg",[8]; average of one UC run (run date in line above),0.983
same,PPB_Stab_Fail,[8],0
same,Mean Stability,"[8]; mean T5hr/T1hr ratio over all replicates and runs, plasma",1.006
same,Fstable.Med,[8],1
same,"Stability (T5hr/ T1hr), replicates A, B, C",[8]; single replicate of one UC run,0.9436 and 0.9774 and 1.0981
same,LOEC,[4]; [12],7.00 µM
same,LOEC,[4]; [13],7 µM
same,"Concentration (nM), Time 15 min",[5]; [17],1073.03 nM and 1187.92 nM and 943.206 nM
same,"Concentration (nM), Time 30 min",[5]; [17],985.478 nM and 1012.58 nM and 870.92 nM
same,"Concentration (nM), Time 60 min",[5]; [17],899.811 nM and 874.355 nM and 982.505 nM
same,"Linear Regression Results, Best-Fit Values, Slope",[5],-0.01549
same,hepatocyte CLint at 1 μM,[9]; [18],23.9 µL/min/1e6 cells
same,hepatocyte CLint at 1 μM,[9]; [19],31 µL/min/1e6 cells
same,hepatocyte CLint at 1 μM,[9]; [20],23.9 µL/min/1e6 cells
same,hepatocyte CLint at 1 μM,[9]; [21],31 µL/min/1e6 cells
same,hepatocyte CLint at 1 μM,[9]; [22],31 µL/min/1e6 cells
same,half-life at 1 μM,[9]; [23],0.746 h
same,Css,[6]; [14],4.87 mg/L and 10.01 uM
same,Clhep,[6],0.588 L/h
same,AED,[6],0.6995 mg/kg/day
same,Fub,[6],0.002357
same,Css,[6]; [15],10.01 µM
same,CLint,[6],4187106 µL/min
same,fraction unbound,"[7]; Fraction Unbound (fu), Run-specific Avg, average of one UC run (run date in line above)",0.03
same,fraction unbound,[7]; [24],0.029
same,half-life at 1 μM,[3]; [25],2.62 h
same,half-life at 1 μM,[3]; [26],3.24 h
same,Hep_Stab_Fail,[3]; [11],0
same,"HT BkgdCl, Slope",[3]; [16],-0.004413
same,"Negative Controls, Heat Treated (HT), concentration at 0 min",[3]; [27],1655.88 nM and 1540.88 nM and 2130.45 nM
same,"Negative Controls, Heat Treated (HT), concentration at 240 min",[3]; [27],752.335 nM and 712.914 nM and 422.601 nM
same,"No Cells BkgdCl, Slope","[3]; no cells control, 0 vs 240 min",-0.003563
same,"Negative Controls, No cells (NC), concentration at 0 min",[3]; Rep 1-3,1381.59 nM and 1965.43 nM and 2200.38 nM
same,"Negative Controls, No cells (NC), concentration at 240 min",[3]; Rep 1-3,723.371 nM and 790.633 nM and 803.182 nM
same,fup,[10],0.0290
same,Fup.Med,[10],0.116
same,Fup.point,[10],0.0275
same,"Fraction Unbound (fu), replicates A, B, C",[10]; single replicate of one UC run (aqueous fraction / Time 5 hr),0.01902 and 0.02822 and 0.04008
